Reference: patent US12240816B2, “Deuterated compounds and uses thereof” (Aldeyra Therapeutics, Inc., priority 2015, dated 2025)
“And” between values parts separate entries of the source, which are not always exact repeats. Equal values may be shown once. “Also recorded” adds a separate entry of the source. Marks after values point to notes of the source that are not given here.

Assays:
rat hippocampal cultures [1] = assay: cells; assay type: cell-based
rat hippocampal cultures [2] = assay: Propidium iodide cell death assay, protection from hydrogen peroxide toxicity; assay type: cell-based
[3] = CFDA, Captisol formulation, 10 μM hydrogen peroxide, 5 h
[4] = CFDA, DMSO formulation, 10 μM hydrogen peroxide, 5 h
[5] = NS2 (CoreRx micro-milled, Captisol) 0.1 μM + 10 μM hydrogen peroxide, 5 h
[6] = NS2 (CoreRx micro-milled, Captisol) 1 μM + 10 μM hydrogen peroxide, 5 h
[7] = NS2 (CoreRx micro-milled, Captisol) 10 μM + 10 μM hydrogen peroxide, 5 h
[8] = NS2 (CoreRx micro-milled, Captisol) 100 μM + 10 μM hydrogen peroxide, 5 h
[9] = NS2 (CoreRx micro-milled, Captisol) 1 mM + 10 μM hydrogen peroxide, 5 h
[10] = NS2 (CoreRx micro-milled, DMSO) 0.1 μM + 10 μM hydrogen peroxide, 5 h
[11] = NS2 (CoreRx micro-milled, DMSO) 1 μM + 10 μM hydrogen peroxide, 5 h
[12] = NS2 (CoreRx micro-milled, DMSO) 10 μM + 10 μM hydrogen peroxide, 5 h
[13] = NS2 (CoreRx micro-milled, DMSO) 100 μM + 10 μM hydrogen peroxide, 5 h
[14] = NS2 (CoreRx micro-milled, DMSO) 1 mM + 10 μM hydrogen peroxide, 5 h
[15] = NS2 (J-Star non-milled, Captisol) 0.1 μM + 10 μM hydrogen peroxide, 5 h
[16] = NS2 (J-Star non-milled, Captisol) 1 μM + 10 μM hydrogen peroxide, 5 h
[17] = NS2 (J-Star non-milled, Captisol) 10 μM + 10 μM hydrogen peroxide, 5 h
[18] = NS2 (J-Star non-milled, Captisol) 100 μM + 10 μM hydrogen peroxide, 5 h
[19] = NS2 (J-Star non-milled, Captisol) 1 mM + 10 μM hydrogen peroxide, 5 h
[20] = NS2 (J-Star non-milled, DMSO) 0.1 μM + 10 μM hydrogen peroxide, 5 h
[21] = NS2 (J-Star non-milled, DMSO) 1 μM + 10 μM hydrogen peroxide, 5 h
[22] = NS2 (J-Star non-milled, DMSO) 10 μM + 10 μM hydrogen peroxide, 5 h
[23] = NS2 (J-Star non-milled, DMSO) 100 μM + 10 μM hydrogen peroxide, 5 h
[24] = NS2 (J-Star non-milled, DMSO) 1 mM + 10 μM hydrogen peroxide, 5 h
[25] = PI, Captisol formulation, 10 μM hydrogen peroxide, 5 h
[26] = PI, DMSO formulation, 10 μM hydrogen peroxide, 5 h

SMILES: CC(C)(O)c1nc2ccc(Cl)cc2cc1N [NS2, 2-(3-amino-6-chloroquinolin-2-yl)propan-2-ol]
- metabolite profile (dog hepatocytes; NS2, 120 min, dog hepatocytes): metabolized to M1, M2, M5, and M6, with some unchanged NS2 remaining; also recorded: two different mono-oxidation products (M1 and M2) and two different glutathione (GSH) conjugates (M5 and M6)
- Peak Areas Dog (dog hepatocytes; dog, 120 min, 3 μM): 4.79E+07
- Full Efficacy Concentration (rat hippocampal cultures [1]; [3]): 100 µM
- No effect Concentration (rat hippocampal cultures [1]; [3]): 1 µM
- EC50 (rat hippocampal cultures [1]; CFDA, Captisol formulation, 10 μM hydrogen peroxide, 5 h, listed as CoreRx NS2 (milled), read-out: EC50 ± SE): 7000 ± 4000 nM
- EC50 (rat hippocampal cultures [1]; CFDA, Captisol formulation, 10 μM hydrogen peroxide, 5 h, listed as NS2 (J-Star), read-out: EC50 ± SE): 9100 nM
- Full Efficacy Concentration (rat hippocampal cultures [1]; [4]): 100 µM
- No effect Concentration (rat hippocampal cultures [1]; [4]): 1 µM
- EC50 (rat hippocampal cultures [1]; CFDA, DMSO formulation, 10 μM hydrogen peroxide, 5 h, values with * are estimates, listed as NS2 (CoreRx), read-out: EC50 ± SE): 9800 nM
- EC50 (rat hippocampal cultures [1]; CFDA, DMSO formulation, 10 μM hydrogen peroxide, 5 h, values with * are estimates, listed as NS2 (J-Star), read-out: EC50 ± SE): 2600 nM
- Full protection concentration (rat hippocampal cultures [1]; CFDA, both NS2 formulations and both batches): 100 µM
- no effect concentration (rat hippocampal cultures [1]; CFDA, both formulations and batches): 1 µM
- % of Control (CFDA) (rat hippocampal cultures [1]; [5]): 58 ± 4%
- CFDA signal, Mean (rat hippocampal cultures [1]; [5]): 26931
- % of Control (CFDA) (rat hippocampal cultures [1]; [6]): 64 ± 6%
- CFDA signal, Mean (rat hippocampal cultures [1]; [6]): 29693
- % of Control (CFDA) (rat hippocampal cultures [1]; [7]): 80 ± 8%
- CFDA signal, Mean (rat hippocampal cultures [1]; [7]): 37577*
- % of Control (CFDA) (rat hippocampal cultures [1]; [8]): 100 ± 6%
- CFDA signal, Mean (rat hippocampal cultures [1]; [8]): 46508*
- % of Control (CFDA) (rat hippocampal cultures [1]; [9]): 92 ± 07%
- CFDA signal, Mean (rat hippocampal cultures [1]; [9]): 42889*
- % of Control (CFDA) (rat hippocampal cultures [1]; [10]): 61 ± 2%
- CFDA signal, Mean (rat hippocampal cultures [1]; [10]): 26314
- % of Control (CFDA) (rat hippocampal cultures [1]; [11]): 62 ± 6%
- CFDA signal, Mean (rat hippocampal cultures [1]; [11]): 26633
- % of Control (CFDA) (rat hippocampal cultures [1]; [12]): 79 ± 3%
- CFDA signal, Mean (rat hippocampal cultures [1]; [12]): 34180*
- CFDA signal, replicate wells (rat hippocampal cultures [1]; [12]): 32661 (3×) and 34496 and 38422
- % of Control (CFDA) (rat hippocampal cultures [1]; [13]): 101 ± 6%
- CFDA signal, Mean (rat hippocampal cultures [1]; [13]): 43328*
- % of Control (CFDA) (rat hippocampal cultures [1]; [14]): 90 ± 3%
- CFDA signal, Mean (rat hippocampal cultures [1]; [14]): 38622*
- % of Control (CFDA) (rat hippocampal cultures [1]; [15]): 60 ± 4%
- CFDA signal, Mean (rat hippocampal cultures [1]; [15]): 24142
- % of Control (CFDA) (rat hippocampal cultures [1]; [16]): 61 ± 3%
- CFDA signal, Mean (rat hippocampal cultures [1]; [16]): 24338
- % of Control (CFDA) (rat hippocampal cultures [1]; [17]): 79± 6%
- CFDA signal, Mean (rat hippocampal cultures [1]; [17]): 31811*
- % of Control (CFDA) (rat hippocampal cultures [1]; [18]): 93 ± 9%
- CFDA signal, Mean (rat hippocampal cultures [1]; [18]): 37544*
- % of Control (CFDA) (rat hippocampal cultures [1]; [19]): 98 ± 3%
- CFDA signal, Mean (rat hippocampal cultures [1]; [19]): 39516*
- % of Control (CFDA) (rat hippocampal cultures [1]; [20]): 60 ± 4%
- CFDA signal, Mean (rat hippocampal cultures [1]; [20]): 24819
- % of Control (CFDA) (rat hippocampal cultures [1]; [21]): 66 ± 6%
- CFDA signal, Mean (rat hippocampal cultures [1]; [21]): 27524
- % of Control (CFDA) (rat hippocampal cultures [1]; [22]): 85 ± 7%
- CFDA signal, Mean (rat hippocampal cultures [1]; [22]): 35341*
- % of Control (CFDA) (rat hippocampal cultures [1]; [23]): 96 ± 10%
- CFDA signal, Mean (rat hippocampal cultures [1]; [23]): 39844*
- % of Control (CFDA) (rat hippocampal cultures [1]; [24]): 88 ± 10%
- CFDA signal, Mean (rat hippocampal cultures [1]; [24]): 36632*
- EC50 (rat hippocampal cultures [1]; Rattus norvegicus, 5 h, CFDA, Captisol formulation, 10 μM hydrogen peroxide, 5 h, read-out: EC50 ± SE): 6800 nM
- EC50 (rat hippocampal cultures [1]; Rattus norvegicus, CFDA, across formulations and batches, read-out: EC50 range): 3000 to 10000 nM
- % of Control (PI) (rat hippocampal cultures [2]; [5]): 167 ± 10%
- PI signal, Mean (rat hippocampal cultures [2]; [5]): 261
- PI signal, replicate wells (rat hippocampal cultures [2]; [5]): 246 (4×) and 323
- % of Control (PI) (rat hippocampal cultures [2]; [6]): 171 ± 9%
- PI signal, Mean (rat hippocampal cultures [2]; [6]): 266
- PI signal, replicate wells (rat hippocampal cultures [2]; [6]): 246 (2×) and 267 and 319 and 254
- % of Control (PI) (rat hippocampal cultures [2]; [7]): 108 ± 20%
- PI signal, Mean (rat hippocampal cultures [2]; [7]): 169*
- PI signal, replicate wells (rat hippocampal cultures [2]; [7]): 180 (3×) and 57 and 246
- % of Control (PI) (rat hippocampal cultures [2]; [8]): 115 ± 13%
- PI signal, Mean (rat hippocampal cultures [2]; [8]): 180*
- PI signal, replicate wells (rat hippocampal cultures [2]; [8]): 246 and 137 and 144 and 180 and 192
- % of Control (PI) (rat hippocampal cultures [2]; [9]): 130 ± 8%
- PI signal, Mean (rat hippocampal cultures [2]; [9]): 203*
- PI signal, replicate wells (rat hippocampal cultures [2]; [9]): 188 and 217 and 246 and 184 and 180
- % of Control (PI) (rat hippocampal cultures [2]; [10]): 189 ± 9%
- PI signal, Mean (rat hippocampal cultures [2]; [10]): 267
- PI signal, replicate wells (rat hippocampal cultures [2]; [10]): 315 and 259 and 246 and 263 and 254
- % of Control (PI) (rat hippocampal cultures [2]; [11]): 190 ± 9%
- PI signal, Mean (rat hippocampal cultures [2]; [11]): 268
- PI signal, replicate wells (rat hippocampal cultures [2]; [11]): 254 (3×) and 315 and 263
- % of Control (PI) (rat hippocampal cultures [2]; [12]): 115 ± 11%
- PI signal, Mean (rat hippocampal cultures [2]; [12]): 163*
- PI signal, replicate wells (rat hippocampal cultures [2]; [12]): 117 and 137 and 180 and 188 and 192
- % of Control (PI) (rat hippocampal cultures [2]; [13]): 113 ± 11%
- PI signal, Mean (rat hippocampal cultures [2]; [13]): 159*
- PI signal, replicate wells (rat hippocampal cultures [2]; [13]): 192 and 117 and 125 and 180 (2×)
- % of Control (PI) (rat hippocampal cultures [2]; [14]): 138 ± 6%
- PI signal, Mean (rat hippocampal cultures [2]; [14]): 195*
- PI signal, replicate wells (rat hippocampal cultures [2]; [14]): 188 and 180 (2×) and 204 and 221
- % of Control (PI) (rat hippocampal cultures [2]; [15]): 165 ± 22%
- PI signal, Mean (rat hippocampal cultures [2]; [15]): 232
- PI signal, replicate wells (rat hippocampal cultures [2]; [15]): 350 and 180 (2×) and 204 and 246
- % of Control (PI) (rat hippocampal cultures [2]; [16]): 172 ± 24%
- PI signal, Mean (rat hippocampal cultures [2]; [16]): 242
- PI signal, replicate wells (rat hippocampal cultures [2]; [16]): 180 and 192 and 184 and 315 and 337
- % of Control (PI) (rat hippocampal cultures [2]; [17]): 113 ± 12%
- PI signal, Mean (rat hippocampal cultures [2]; [17]): 160*
- PI signal, replicate wells (rat hippocampal cultures [2]; [17]): 180 and 188 and 117 (2×) and 196
- % of Control (PI) (rat hippocampal cultures [2]; [18]): 99 ± 7%
- PI signal, Mean (rat hippocampal cultures [2]; [18]): 139*
- PI signal, replicate wells (rat hippocampal cultures [2]; [18]): 180 and 133 and 129 (2×) and 125
- % of Control (PI) (rat hippocampal cultures [2]; [19]): 120 ± 6%
- PI signal, Mean (rat hippocampal cultures [2]; [19]): 169*
- PI signal, replicate wells (rat hippocampal cultures [2]; [19]): 180 (3×) and 133 and 172
- % of Control (PI) (rat hippocampal cultures [2]; [20]): 175 ± 17%
- PI signal, Mean (rat hippocampal cultures [2]; [20]): 275
- PI signal, replicate wells (rat hippocampal cultures [2]; [20]): 350 and 259 and 246 and 315 and 204
- % of Control (PI) (rat hippocampal cultures [2]; [21]): 143 ± 9%
- PI signal, Mean (rat hippocampal cultures [2]; [21]): 225
- PI signal, replicate wells (rat hippocampal cultures [2]; [21]): 188 and 250 and 246 (2×) and 196
- % of Control (PI) (rat hippocampal cultures [2]; [22]): 115 ± 2%
- PI signal, Mean (rat hippocampal cultures [2]; [22]): 181*
- PI signal, replicate wells (rat hippocampal cultures [2]; [22]): 180 (3×) and 192 and 172
- % of Control (PI) (rat hippocampal cultures [2]; [23]): 111 ± 18%
- PI signal, Mean (rat hippocampal cultures [2]; [23]): 175*
- PI signal, replicate wells (rat hippocampal cultures [2]; [23]): 246 (2×) and 133 and 125 (2×)
- % of Control (PI) (rat hippocampal cultures [2]; [24]): 113 ± 15%
- PI signal, Mean (rat hippocampal cultures [2]; [24]): 177*
- PI signal, replicate wells (rat hippocampal cultures [2]; [24]): 117 and 250 and 180 and 204 and 133
- Full Efficacy Concentration (rat hippocampal cultures [2]; [25]): 10 µM
- No effect Concentration (rat hippocampal cultures [2]; [25]): 1 µM
- EC50 (rat hippocampal cultures [2]; PI, Captisol formulation, 10 μM hydrogen peroxide, 5 h, values with * are estimates, listed as NS2 (J-Star), read-out: EC50 ± SE): 2800 nM
- Full Efficacy Concentration (rat hippocampal cultures [2]; [26]): 10 µM
- No effect Concentration (rat hippocampal cultures [2]; [26]): 1 µM
- EC50 (rat hippocampal cultures [2]; PI, DMSO formulation, 10 μM hydrogen peroxide, 5 h, values with * are estimates, listed as NS2 (J-Star), read-out: EC50 ± SE): 1100 nM
- Full protection concentration (rat hippocampal cultures [2]; PI, both NS2 formulations and both batches): 10 µM
- no effect concentration (rat hippocampal cultures [2]; PI, both formulations and batches): 1 µM
- EC50 (rat hippocampal cultures [2]; Rattus norvegicus, 5 h, PI, DMSO formulation, 10 μM hydrogen peroxide, 5 h, values with * are estimates, read-out: EC50 ± SE): 1300 nM
- EC50 (rat hippocampal cultures [2]; Rattus norvegicus, PI, across formulations and batches, read-out: EC50 range): 1100 to 2800 nM
- EC50 (rat hippocampal cultures [2]; Rattus norvegicus, PI, best available estimate, read-out: EC50, mean value for all PI data): 2000 ± 1000 nM
